Measured values published in PubChem BioAssay (NCI).
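Assay format: 96-well plates, 48-hour exposure. Abbreviation: GI50, concentration required for 50% inhibition of growth. At the TGI there is no net growth.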

Experiments:
Assay in all cases: inhibition of tumour cell growth, NCI panel, 48 h
MOLT-4 leukemia = test system: MOLT-4 leukemia
SNB-19 CNS = test system: SNB-19 CNS
SK-MEL-5 melanoma = test system: SK-MEL-5 melanoma
SF-268 CNS = test system: SF-268 CNS
EKVX NSCLC = test system: EKVX NSCLC
BT-549 breast = test system: BT-549 breast
U251 CNS = test system: U251 CNS
HCC-2998 colon = test system: HCC-2998 colon
OVCAR-5 ovarian = test system: OVCAR-5 ovarian
MDA-MB-231 breast = test system: MDA-MB-231 breast
UO-31 renal = test system: UO-31 renal
HT29 colon = test system: HT29 colon
OVCAR-4 ovarian = test system: OVCAR-4 ovarian
MDA-MB-435 = test system: MDA-MB-435
ACHN renal = test system: ACHN renal
MCF7 breast = test system: MCF7 breast
UACC-62 melanoma = test system: UACC-62 melanoma
CCRF-CEM leukemia = test system: CCRF-CEM leukemia
HOP-92 NSCLC = test system: HOP-92 NSCLC
IGROV1 ovarian = test system: IGROV1 ovarian
NCI-H460 lung = test system: NCI-H460 lung
HL-60(TB) leukemia = test system: HL-60(TB) leukemia
NCI-H226 lung = test system: NCI-H226 lung
SF-295 CNS = test system: SF-295 CNS
HCT-116 colon = test system: HCT-116 colon
SN12C renal = test system: SN12C renal
RXF 393 renal = test system: RXF 393 renal
A498 renal = test system: A498 renal
LOX IMVI melanoma = test system: LOX IMVI melanoma
NCI/ADR-RES ovarian = test system: NCI/ADR-RES ovarian
A549 NSCLC = test system: A549 NSCLC
COLO 205 colon = test system: COLO 205 colon
TK-10 renal = test system: TK-10 renal
KM12 colon = test system: KM12 colon
DU-145 prostate = test system: DU-145 prostate
SK-MEL-28 melanoma = test system: SK-MEL-28 melanoma
HOP-62 NSCLC = test system: HOP-62 NSCLC
SK-MEL-2 melanoma = test system: SK-MEL-2 melanoma
PC-3 prostate = test system: PC-3 prostate
786-0 renal = test system: 786-0 renal
RPMI-8226 leukemia = test system: RPMI-8226 leukemia
SK-OV-3 ovarian = test system: SK-OV-3 ovarian
HCT-15 colon = test system: HCT-15 colon
SW-620 colon = test system: SW-620 colon
M14 melanoma = test system: M14 melanoma
NCI-H522 lung = test system: NCI-H522 lung
HS 578T breast = test system: HS 578T breast
NCI-H23 lung = test system: NCI-H23 lung
T-47D breast = test system: T-47D breast
OVCAR-8 ovarian = test system: OVCAR-8 ovarian
SNB-75 CNS = test system: SNB-75 CNS
UACC-257 melanoma = test system: UACC-257 melanoma
SR leukemia = test system: SR leukemia
OVCAR-3 ovarian = test system: OVCAR-3 ovarian
K-562 leukemia = test system: K-562 leukemia
CAKI-1 renal = test system: CAKI-1 renal
SF-539 CNS = test system: SF-539 CNS
MALME-3M melanoma = test system: MALME-3M melanoma

For `N#Cc1c(N)[nH]c2ccc(Sc3ccccc3)cc12`, the TGI (MOLT-4 leukemia) was 11.2 µM, the TGI (SNB-19 CNS) was 17.2 µM and the TGI (SK-MEL-5 melanoma) was 4.43 µM. It also gave a TGI (SF-268 CNS) of 15.4 µM, a TGI (EKVX NSCLC) of 11.7 µM and a TGI (BT-549 breast) of 19.5 µM. The TGI (U251 CNS) was 17.5 µM, the TGI (HCC-2998 colon) was 17.3 µM and the TGI (OVCAR-5 ovarian) was 18 µM. The TGI (MDA-MB-231 breast) was 15.4 µM, the TGI (UO-31 renal) was 13.9 µM and the TGI (HT29 colon) was 9.01 µM. The TGI (OVCAR-4 ovarian) was 21.6 µM, the TGI (MDA-MB-435) was 0.146 µM and the TGI (ACHN renal) was 16 µM. The TGI (MCF7 breast) was 16.6 µM, the TGI (UACC-62 melanoma) was 2.5 µM and the TGI (CCRF-CEM leukemia) was 13.8 µM. The TGI (HOP-92 NSCLC) was 19.8 µM, the TGI (IGROV1 ovarian) was 8.36 µM and the TGI (NCI-H460 lung) was 21.6 µM. For the same molecule, the TGI (HL-60(TB) leukemia) was 1.92 µM, the TGI (NCI-H226 lung) was 1.29 µM and the TGI (SF-295 CNS) was 4.96 µM. It also gave a TGI (HCT-116 colon) of 8.34 µM, a TGI (SN12C renal) of 6.64 µM and a TGI (RXF 393 renal) of 5.48 µM. It also gave a TGI (A498 renal) of 2.04 µM, a TGI (LOX IMVI melanoma) of 7.56 µM and a TGI (NCI/ADR-RES ovarian) of 10.2 µM. For the same molecule, the TGI (A549 NSCLC) was 12.1 µM, the TGI (COLO 205 colon) was 1.34 µM and the TGI (TK-10 renal) was 20.8 µM. The TGI (KM12 colon) was 10.7 µM, the TGI (DU-145 prostate) was 15.5 µM and the TGI (SK-MEL-28 melanoma) was 17.4 µM. The TGI (HOP-62 NSCLC) was 20.5 µM, the TGI (SK-MEL-2 melanoma) was 17.5 µM and the TGI (PC-3 prostate) was 15.8 µM. It also gave a TGI (786-0 renal) of 8.1 µM, a TGI (RPMI-8226 leukemia) of 8.65 µM and a TGI (SK-OV-3 ovarian) of 20.3 µM. It also gave a TGI (HCT-15 colon) of 14.9 µM, a TGI (SW-620 colon) of 16.9 µM and a TGI (M14 melanoma) of 3.5 µM. The TGI (NCI-H522 lung) was 3.21 µM, the TGI (HS 578T breast) was 25.8 µM and the TGI (NCI-H23 lung) was 10.3 µM. For the same molecule, the TGI (T-47D breast) was 23 µM, the TGI (OVCAR-8 ovarian) was 12 µM and the TGI (SNB-75 CNS) was 23 µM. For the same molecule, the TGI (UACC-257 melanoma) was 29.5 µM, the TGI (SR leukemia) was 6.25 µM and the TGI (OVCAR-3 ovarian) was 15.8 µM. For the same molecule, the TGI (K-562 leukemia) was 9.71 µM, the TGI (CAKI-1 renal) was 9.27 µM and the TGI (SF-539 CNS) was 0.694 µM.
In the case of `CC(=O)Oc1ccccc1C(=O)/C=C/c1cccc([N+](=O)[O-])c1`, the GI50 (MOLT-4 leukemia) is reported as 3.15 µM, the TGI (MOLT-4 leukemia) is reported as > 100 µM and the GI50 (SNB-19 CNS) is reported as 4.43 µM. The TGI (SNB-19 CNS) was 15.3 µM, the GI50 (SK-MEL-5 melanoma) was 3.03 µM and the TGI (SK-MEL-5 melanoma) was 9.07 µM. For the same molecule, the GI50 (SF-268 CNS) was 3.58 µM, the TGI (SF-268 CNS) was 12.4 µM and the GI50 (EKVX NSCLC) was 11.3 µM. The TGI (EKVX NSCLC) was 26.6 µM, the GI50 (BT-549 breast) was 2.28 µM and the TGI (BT-549 breast) was 5.41 µM. The GI50 (U251 CNS) was 2.02 µM, the TGI (U251 CNS) was 4.78 µM and the GI50 (HCC-2998 colon) was 2.3 µM. It also gave a TGI (HCC-2998 colon) of 4.97 µM, a GI50 (OVCAR-5 ovarian) of 4.75 µM and a TGI (OVCAR-5 ovarian) of 17.1 µM. The GI50 (MDA-MB-231 breast) was 3.48 µM, the TGI (MDA-MB-231 breast) was 13.5 µM and the GI50 (UO-31 renal) was 1.52 µM. The TGI (UO-31 renal) was 2.96 µM, the GI50 (HT29 colon) was 2.36 µM and the TGI (HT29 colon) was 4.92 µM. For the same molecule, the GI50 (OVCAR-4 ovarian) was 5.95 µM, the TGI (OVCAR-4 ovarian) was 23.1 µM and the GI50 (MDA-MB-435) was 1.65 µM. For the same molecule, the TGI (MDA-MB-435) was 3.55 µM, the GI50 (ACHN renal) was 2.29 µM and the TGI (ACHN renal) was 4.99 µM. The GI50 (MCF7 breast) was 1.99 µM, the TGI (MCF7 breast) was 10.6 µM and the GI50 (UACC-62 melanoma) was 3.29 µM. The TGI (UACC-62 melanoma) was 12.2 µM, the GI50 (CCRF-CEM leukemia) was 3.06 µM and the TGI (CCRF-CEM leukemia) was > 100 µM. The GI50 (HOP-92 NSCLC) was 7.91 µM, the TGI (HOP-92 NSCLC) was 22.5 µM and the GI50 (NCI-H460 lung) was 2.4 µM. The TGI (NCI-H460 lung) was 9.4 µM, the GI50 (HL-60(TB) leukemia) was 3.26 µM and the TGI (HL-60(TB) leukemia) was 9.51 µM. It also gave a GI50 (NCI-H226 lung) of 10.9 µM, a TGI (NCI-H226 lung) of 30.6 µM and a GI50 (SF-295 CNS) of 1.88 µM. The TGI (SF-295 CNS) was 4.16 µM, the GI50 (HCT-116 colon) was 1.66 µM and the TGI (HCT-116 colon) was 3.07 µM. For the same molecule, the GI50 (SN12C renal) was 2.53 µM, the TGI (SN12C renal) was 6.79 µM and the GI50 (RXF 393 renal) was 1.88 µM. For the same molecule, the TGI (RXF 393 renal) was 3.48 µM, the GI50 (A498 renal) was 2.54 µM and the TGI (A498 renal) was 17.6 µM. For the same molecule, the GI50 (LOX IMVI melanoma) was 1.56 µM, the TGI (LOX IMVI melanoma) was 3.33 µM and the GI50 (NCI/ADR-RES ovarian) was 3.88 µM. The TGI (NCI/ADR-RES ovarian) was 18.7 µM, the GI50 (A549 NSCLC) was 5.48 µM and the TGI (A549 NSCLC) was 23.3 µM. The GI50 (COLO 205 colon) was 3.29 µM, the TGI (COLO 205 colon) was 11.5 µM and the GI50 (KM12 colon) was 2.4 µM. For the same molecule, the TGI (KM12 colon) was 6.23 µM, the GI50 (DU-145 prostate) was 4.37 µM and the TGI (DU-145 prostate) was 15.8 µM. For the same molecule, the GI50 (SK-MEL-28 melanoma) was 5.56 µM, the TGI (SK-MEL-28 melanoma) was 21.2 µM and the GI50 (HOP-62 NSCLC) was 2.5 µM. The TGI (HOP-62 NSCLC) was 7.8 µM, the GI50 (SK-MEL-2 melanoma) was 15.1 µM and the TGI (SK-MEL-2 melanoma) was 29.4 µM. For the same molecule, the GI50 (PC-3 prostate) was 3.69 µM, the TGI (PC-3 prostate) was 15.3 µM and the GI50 (786-0 renal) was 1.83 µM. For the same molecule, the TGI (786-0 renal) was 3.6 µM, the GI50 (RPMI-8226 leukemia) was 3.18 µM and the TGI (RPMI-8226 leukemia) was 16.1 µM. It also gave a GI50 (SK-OV-3 ovarian) of 12.9 µM, a TGI (SK-OV-3 ovarian) of 29.2 µM and a GI50 (SW-620 colon) of 1.87 µM. The TGI (SW-620 colon) was 3.9 µM, the GI50 (M14 melanoma) was 3.93 µM and the TGI (M14 melanoma) was 14 µM. For the same molecule, the GI50 (NCI-H522 lung) was 15.3 µM, the TGI (NCI-H522 lung) was 36.3 µM and the GI50 (HS 578T breast) was 1.78 µM. For the same molecule, the TGI (HS 578T breast) was 8.16 µM, the GI50 (NCI-H23 lung) was 5.09 µM and the TGI (NCI-H23 lung) was 19.6 µM. It also gave a GI50 (T-47D breast) of 10.8 µM, a TGI (T-47D breast) of 44 µM and a GI50 (OVCAR-8 ovarian) of 3.11 µM. For the same molecule, the TGI (OVCAR-8 ovarian) was 10.4 µM, the GI50 (SNB-75 CNS) was 2.94 µM and the TGI (SNB-75 CNS) was 14.4 µM. It also gave a GI50 (UACC-257 melanoma) of 6.99 µM, a TGI (UACC-257 melanoma) of 20.8 µM and a GI50 (SR leukemia) of 2.25 µM. The TGI (SR leukemia) was 7.7 µM, the GI50 (OVCAR-3 ovarian) was 2.6 µM and the TGI (OVCAR-3 ovarian) was 6.17 µM. For the same molecule, the GI50 (K-562 leukemia) was 3.14 µM, the TGI (K-562 leukemia) was > 100 µM and the GI50 (CAKI-1 renal) was 2.95 µM. It also gave a TGI (CAKI-1 renal) of 14.9 µM, a GI50 (MALME-3M melanoma) of 13.6 µM and a TGI (MALME-3M melanoma) of 30.5 µM. The GI50 (SF-539 CNS) was 2.08 µM and the TGI (SF-539 CNS) was 4.93 µM.
